In the NIST ThermoML archive (doi:10.1021/je3013205):
± gives the expanded uncertainty stated by the source.

Tests used:
[1] = 101 kPa, Liquid, Vibrating tube method
[2] = xn = mol fraction of the nth substance listed; details: 101 kPa, Liquid, Vibrating tube method

OCCO [1,2-ethanediol]
[1]
Details	mass density [kg/m3]
283.15 K	1119.29 ± 0.33
293.15 K	1112.37 ± 0.32
303.15 K	1105.39 ± 0.31
313.15 K	1098.34 ± 0.31
323.15 K	1091.21 ± 0.3
333.15 K	1083.99 ± 0.3
343.15 K	1076.65 ± 0.29

NCCOCCO [2-(2-aminoethoxy)ethanol]
[1]
Details	mass density [kg/m3]
283.15 K	1063.9 ± 0.97
293.15 K	1055.86 ± 0.95
303.15 K	1047.8 ± 0.94
313.15 K	1039.73 ± 0.92
323.15 K	1031.63 ± 0.9
333.15 K	1023.46 ± 0.89
343.15 K	1015.24 ± 0.87

NCCO [2-aminoethan-1-ol]
[1]
Details	mass density [kg/m3]
283.15 K	1024.11 ± 0.25
293.15 K	1016.23 ± 0.24
303.15 K	1008.32 ± 0.24
313.15 K	1000.37 ± 0.23
323.15 K	992.364 ± 0.23
333.15 K	984.301 ± 0.23
343.15 K	976.153 ± 0.23

NCCO [2-aminoethan-1-ol] + CO
mass density [kg/m3], [2]
Details	x2 = 0	x2 = 0.0999	x2 = 0.2	x2 = 0.3001	x2 = 0.4	x2 = 0.5	x2 = 0.6001	x2 = 0.7026	x2 = 0.7998	x2 = 0.8999
283.15 K	1024.11 ± 0.25	1012.96 ± 0.22	1000.24 ± 0.19	985.644 ± 0.18	969.73 ± 0.16	951.484 ± 0.15	930.19 ± 0.14	904.556 ± 0.14	875.763 ± 0.14	841.316 ± 0.14
293.15 K	1016.23 ± 0.24	1005 ± 0.21	992.199 ± 0.19	977.53 ± 0.18	961.548 ± 0.16	943.204 ± 0.15	921.795 ± 0.14	895.978 ± 0.14	867.002 ± 0.14	832.282 ± 0.14
303.15 K	1008.32 ± 0.24	997.005 ± 0.21	984.108 ± 0.19	969.37 ± 0.18	953.296 ± 0.17	934.844 ± 0.15	913.321 ± 0.15	887.345 ± 0.14	858.177 ± 0.14	823.2 ± 0.14
313.15 K	1000.37 ± 0.23	988.961 ± 0.21	975.96 ± 0.19	961.142 ± 0.18	944.973 ± 0.17	926.41 ± 0.16	904.767 ± 0.15	878.633 ± 0.14	849.26 ± 0.14	814.016 ± 0.14
323.15 K	992.364 ± 0.23	980.886 ± 0.21	967.788 ± 0.19	952.855 ± 0.18	936.722 ± 0.17	917.891 ± 0.16	896.116 ± 0.15	869.812 ± 0.15	840.244 ± 0.14	804.724 ± 0.15
333.15 K	984.301 ± 0.23	972.713 ± 0.21	959.607 ± 0.2	944.613 ± 0.18	928.096 ± 0.17	909.268 ± 0.16	887.352 ± 0.15	860.859 ± 0.15	831.072 ± 0.15	795.281 ± 0.15

NCCO [2-aminoethan-1-ol] + OCCO
mass density [kg/m3], [2]
Details	x2 = 0	x2 = 0.1002	x2 = 0.2	x2 = 0.2998	x2 = 0.3999	x2 = 0.5001	x2 = 0.5999	x2 = 0.7	x2 = 0.8002	x2 = 0.8999
283.15 K	1024.11 ± 0.25	1035.45 ± 0.26	1046.35 ± 0.27	1056.77 ± 0.27	1066.86 ± 0.28	1076.47 ± 0.29	1085.82 ± 0.3	1094.87 ± 0.3	1103.84 ± 0.31	1112.47 ± 0.32
293.15 K	1016.23 ± 0.24	1027.68 ± 0.25	1038.7 ± 0.26	1049.24 ± 0.27	1059.48 ± 0.28	1069.16 ± 0.28	1078.59 ± 0.29	1087.73 ± 0.3	1096.76 ± 0.31	1105.44 ± 0.31
303.15 K	1008.32 ± 0.24	1019.88 ± 0.24	1031.01 ± 0.25	1041.67 ± 0.26	1052.04 ± 0.27	1061.82 ± 0.28	1071.33 ± 0.29	1080.56 ± 0.29	1089.64 ± 0.3	1098.37 ± 0.31
313.15 K	1000.37 ± 0.23	1012.03 ± 0.24	1023.26 ± 0.25	1034.05 ± 0.26	1044.53 ± 0.26	1054.42 ± 0.27	1064.02 ± 0.28	1073.32 ± 0.29	1082.46 ± 0.29	1091.24 ± 0.3
323.15 K	992.364 ± 0.23	1004.13 ± 0.23	1015.46 ± 0.24	1026.35 ± 0.25	1036.96 ± 0.26	1046.93 ± 0.27	1056.62 ± 0.27	1066.01 ± 0.28	1075.21 ± 0.29	1084.05 ± 0.3
333.15 K	984.301 ± 0.23	996.181 ± 0.23	1007.58 ± 0.23	1018.58 ± 0.24	1029.3 ± 0.25	1039.37 ± 0.26	1049.14 ± 0.27	1058.6 ± 0.28	1067.87 ± 0.28	1076.77 ± 0.29
343.15 K	976.153 ± 0.23	988.118 ± 0.23	999.618 ± 0.23	1010.71 ± 0.24	1021.54 ± 0.25	1031.7 ± 0.25	1041.55 ± 0.26	1051.09 ± 0.27	1060.42 ± 0.28	1069.37 ± 0.28

CO [methanol]
[1]
Details	mass density [kg/m3]
283.15 K	801.254 ± 0.14
293.15 K	791.866 ± 0.14
303.15 K	782.43 ± 0.15
313.15 K	772.902 ± 0.15
323.15 K	763.244 ± 0.15
333.15 K	753.389 ± 0.16

CO [methanol] + NCCO
[2], x1 = 1
Details	mass density [kg/m3]
283.15 K	801.254 ± 0.14
293.15 K	791.866 ± 0.14
303.15 K	782.43 ± 0.15
313.15 K	772.902 ± 0.15
323.15 K	763.244 ± 0.15
333.15 K	753.389 ± 0.16

CO [methanol] + NCCOCCO
[2], x1 = 1
Details	mass density [kg/m3]
283.15 K	801.254 ± 0.14
293.15 K	791.866 ± 0.14
303.15 K	782.43 ± 0.15
313.15 K	772.902 ± 0.15
323.15 K	763.244 ± 0.15
333.15 K	753.389 ± 0.16

CC(C)O [propan-2-ol]
[1]
Details	mass density [kg/m3]
283.15 K	794.005 ± 0.12
293.15 K	785.764 ± 0.13
303.15 K	777.284 ± 0.13
313.15 K	768.476 ± 0.13
323.15 K	759.309 ± 0.14
333.15 K	749.679 ± 0.14
343.15 K	739.528 ± 0.14

CC(C)O [propan-2-ol] + NCCO
[2], x1 = 1
Details	mass density [kg/m3]
283.15 K	794.005 ± 0.12
293.15 K	785.764 ± 0.13
303.15 K	777.284 ± 0.13
313.15 K	768.476 ± 0.13
323.15 K	759.309 ± 0.14
333.15 K	749.679 ± 0.14
343.15 K	739.528 ± 0.14

CC(C)O [propan-2-ol] + NCCOCCO
[2], x1 = 1
Details	mass density [kg/m3]
283.15 K	794.005 ± 0.12
293.15 K	785.764 ± 0.13
303.15 K	777.284 ± 0.13
313.15 K	768.476 ± 0.13
323.15 K	759.309 ± 0.14
333.15 K	749.679 ± 0.14
343.15 K	739.528 ± 0.14
